The source made the active and inactive calls. The rule behind the calls is not given here.
Tested on: HEK-293T NF-kB-Luc cytotoxicity, resazurin fluorescence, 15 h
Test: cytotoxicity in HEK-293T NF-kB-Luc cells, dose response, cytotoxicity control for B/T-cell NF-kB inhibitor project, cell-based, uHTS hits (AID 489019)

## CC(=O)OC[C@]12CCC(C)=C[C@H]1O[C@@H]1[C@H](O)[C@@H](OC(C)=O)[C@@]2(C)[C@]12CO2
  IC50: > 80 µM (inactive)
